Data as given in patent US5990158A, “Carboxylic acid derivatives, method of manufacturing the same and therapeutic agents containing these compounds” (Kotobuki Seiyaku Co., Ltd., priority 1996, dated 1999).

Experiments:
MMP-2 (gelatinase A) = target: T1, MMP-2 (gelatinase A) (Homo sapiens, UniProt P08253); assay: MMP-2 (gelatinase A) inhibitory activity, FITC-labeled type IV collagen degradation; assay type: biochemical; settings: 50% inhibition of collagen type IV degradation; activated pro MMP-2 from transfected COS-1 cells; 42° C., 4 h
T1 construct: made in house; host or cells: COS-1 cells transfected with human pro-MMP-2 cDNA (secreted into culture medium)
T1 sequence (P08253 110-660): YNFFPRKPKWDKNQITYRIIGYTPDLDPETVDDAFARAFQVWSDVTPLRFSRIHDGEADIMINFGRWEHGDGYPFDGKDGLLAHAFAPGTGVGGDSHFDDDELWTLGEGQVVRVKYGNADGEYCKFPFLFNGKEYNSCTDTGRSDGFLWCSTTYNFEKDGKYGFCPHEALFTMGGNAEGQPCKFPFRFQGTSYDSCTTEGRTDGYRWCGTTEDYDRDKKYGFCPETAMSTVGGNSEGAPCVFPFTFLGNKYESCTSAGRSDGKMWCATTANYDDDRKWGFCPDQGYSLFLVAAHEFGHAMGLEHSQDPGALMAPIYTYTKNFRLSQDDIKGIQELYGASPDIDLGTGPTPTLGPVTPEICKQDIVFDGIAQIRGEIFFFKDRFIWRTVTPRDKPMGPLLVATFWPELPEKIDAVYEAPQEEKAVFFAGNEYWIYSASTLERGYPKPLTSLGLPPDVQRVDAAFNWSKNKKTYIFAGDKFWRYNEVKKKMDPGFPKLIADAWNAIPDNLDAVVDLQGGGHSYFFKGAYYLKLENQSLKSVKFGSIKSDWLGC
Experimental: (§1) Experiment 2: MMP-2 (gelatinase A) and MMP-9 (gelatinase B) inhibitory activities.
(§2) Pro MMP-2 was obtained from culture medium separated from human pro-MMP-2 cDNA tranfected COS-1 cells. It was activated by 1 mM (p-aminophenyl)mercury acetic acid, and MMP-9, derived human fibrosarcome,was purchased from Yagai Co. Ltd. Inhibition of both enzyme activities were estimated by enzyme assay using type IV collagenase activity assay kit (Yagai Co. Ltd., Biswaz, C. et al., J. Cell.Biochem., 28, 39 (1984)). MMP-2 or MMP-9 (0.01 U/ml), test compound (several concentrations), and FITC-labeled type IV collagen (derived bovine placenta, 25 μg) were incubated in 100 μl of 0.05M Tris - HCl buffer (pH 7.5) containing 200 mM NaCl and 5 mM CaCl2 at 42° C. for 4 h. Inhibitory activity of compound was evaluated by same as that of MMP-1 assay. Unchanged type IV collagen was precipitated by centrifugation, and the degradation percent of substrate was calculated by comparison with a fluorescence intensity of heat denatured substrate as 100%. Inhibition of enzyme activity was expressed as an IC50 value which was the concentration of test compound necessary to produce 50% inhibition of collagen type IV degradation by enzyme.

MMP-9 (gelatinase B) = target: T2, MMP-9 (gelatinase B) (Homo sapiens, UniProt P14780); assay: MMP-9 (gelatinase B) inhibitory activity, FITC-labeled type IV collagen degradation; assay type: biochemical; settings: 50% inhibition of collagen type IV degradation; MMP-9 derived from human fibrosarcoma; 42° C., 4 h
T2 construct: purchased Yagai Co. Ltd; host or cells: human fibrosarcoma
T2 sequence (P14780 94-707): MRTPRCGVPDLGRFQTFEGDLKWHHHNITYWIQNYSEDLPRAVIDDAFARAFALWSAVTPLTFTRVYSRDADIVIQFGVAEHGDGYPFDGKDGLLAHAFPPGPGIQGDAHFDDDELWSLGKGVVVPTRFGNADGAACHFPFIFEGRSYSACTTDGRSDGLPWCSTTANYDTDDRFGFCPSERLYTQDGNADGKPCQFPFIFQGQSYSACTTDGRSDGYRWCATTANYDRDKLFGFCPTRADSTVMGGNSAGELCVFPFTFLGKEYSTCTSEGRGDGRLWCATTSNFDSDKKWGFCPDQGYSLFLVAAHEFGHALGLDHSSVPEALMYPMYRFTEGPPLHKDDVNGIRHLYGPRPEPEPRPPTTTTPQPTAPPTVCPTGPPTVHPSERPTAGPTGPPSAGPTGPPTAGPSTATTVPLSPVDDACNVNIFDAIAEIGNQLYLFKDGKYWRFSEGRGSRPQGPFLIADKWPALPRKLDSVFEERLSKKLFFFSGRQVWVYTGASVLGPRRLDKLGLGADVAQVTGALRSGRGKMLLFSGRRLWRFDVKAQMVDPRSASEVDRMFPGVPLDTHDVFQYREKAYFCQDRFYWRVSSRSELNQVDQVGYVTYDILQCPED
Experimental: as §1, §2

Row | IC50 (MMP-2 (gelatinase A)) [nM] | IC50 (MMP-9 (gelatinase B)) [nM] | SMILES
1 | 160 | 120 | CNC(=O)[C@H](Cc1ccccc1)NC(=O)[C@H](CCCCOc1ccc(OC)cc1)CC(=O)O [Compound 14]
2 | 50 | 5.1 | CNC(=O)[C@H](Cc1ccccc1)NC(=O)[C@H](CCCOc1ccc(OC)cc1)CC(=O)O [Compound 10, N-[(2R)-2-(1'-Carboxymethyl)-5-[(4-methoxyphenyl)oxy]pentanoyl]-L-phenylanine N-Methylamide]
3 | > 10000 | 2200 | CNC(=O)[C@H](Cc1ccccc1)NC(=O)[C@@H](CC(=O)NO)CC(C)(C)COC [Compound 58, N-[(2R)-2-(2'-Hydroxyamino-2'-oxo-ethyl)-4,4-dimethyl-5-methoxy-pentanoyl]-L-phenylalanine N-Methylamide]
4 | 2700 | 2900 | CNC(=O)[C@H](Cc1ccccc1)NC(=O)[C@H](CCCCc1ccc2cccccc1-2)CC(=O)NO [Compound 37, N-[(2R)-2-(2'-Hydroxyamino-2'-oxo-ethyl)-6-(azulene-1-yl)-hexanoyl]-L-phenylalanine N-Methylamide]
5 | 240 | 280 | CNC(=O)[C@H](Cc1ccc(OC)cc1)NC(=O)[C@H](CCc1ccc2cccccc1-2)CC(=O)O [Compound 3, (2S)-2-[(2R)-2-(1'-Carboxymethyl)-4-(azulene-1-yl)butyroyl)amino-3-(4-methoxy)phenylpropanoylmethylamide]
6 | 26 | 0.42 | COc1ccc(C[C@H](NC(=O)[C@H](CCCOc2ccc(OC)cc2)CC(=O)NO)C(=O)NC(C)(C)C)cc1 [Compound 49, (2S)-2-[(2R)-2-(2'-Hydroxyamino-2'-oxo-ethyl)-5-[(4-methoxyphenyl)oxy]-pentanoyl]amino-3-(4-methoxy)phenyl-propanoyl-tert-butylamide]
7 | 1 | 0.18 | CNC(=O)[C@H](Cc1ccccc1)NC(=O)[C@H](CCCOc1ccc(OC)cc1)CC(=O)NO [Compound 40, N-[(2R)-2-(2'-Hydroxyamino-2'-oxo-ethyl)-5-[(4-methoxyphenyl)oxy]pentanoyl]-L-phenylalanine N-Methylamide]
8 | 1300 | 2500 | CNC(=O)[C@H](Cc1ccccc1)NC(=O)[C@H](CCCc1ccc2cccccc1-2)CC(=O)NO [Compound 35, N-[(2R)-2-(2'-Hydroxyamino-2'-oxo-ethyl)-5-(azulene-1-yl)-pentanoyl]-L-phenylalanine N-Methylamide]
9 | 8.8 | 1.4 | CCOc1ccc(OCC[C@H](CC(=O)NO)C(=O)N[C@@H](Cc2ccccc2)C(=O)NC)cc1 [Compound 39, N-[(2R)-2-(2'-Hydroxyamino-2'-oxo-ethyl)-4-[(4-ethoxy-phenyl)oxy]butyloyl]-L-phenylalanine N-Methylamide]
10 | 46 | 13 | CNC(=O)[C@H](Cc1ccc(OC)cc1)NC(=O)[C@H](CCOc1ccc(OC)cc1)CC(=O)O [Compound 17, (2S)-2-[(2R)-2-(1'-Carboxymethyl)-4-[(4-methoxyphenyl)-oxy]butyroyl]amino-3-(4-methoxy)phenylpropanoylmethylamide]
11 | 16 | 2.9 | COc1ccc(C[C@H](NC(=O)[C@H](CCCOc2ccc(OC)cc2)CC(=O)O)C(=O)NCCS(N)(=O)=O)cc1 [Compound 20]
12 | 200 | 51 | CCOc1ccc(C[C@H](NC(=O)[C@H](CCCCOc2ccc(OC)cc2)CC(=O)O)C(=O)NC)cc1 [Compound 23, (2S)-2-[(2R)-2-(1'-Carboxymethyl)-6-[(4-methoxyphenyl)oxy]hexanoyl]amino-3-(4-ethoxy)phenylpropanoylmethylamide]
13 | 2300 | 980 | CNC(=O)[C@H](Cc1ccc(OC)cc1)NC(=O)[C@H](CCCCOc1ccc(OC)cc1)CC(=O)OCc1oc(=O)oc1C [Compound 64, (2S)-2-[(2R)-2-(2'-(5-Methyl-2-oxo-1,3-dioxolen-4-yl)-methylene-oxy-2'-oxo-ethyl]-6-[(4-methoxyphenyl)oxy]-hexanoyl]amino-3-(4-methoxy)phenylpropanoylmethylamide]
14 | 160 | 18 | CNC(=O)[C@H](Cc1ccc(OC)cc1)NC(=O)[C@H](CCc1ccc2cccccc1-2)CC(=O)NO [Compound 33, (2S)-2-[(2R)-2-(2'-Hydroxyamino-2'-oxo-ethyl)-4-(azulene-1-yl)butyloyl]amino-3-(4-methoxy)phenylpropanoylmethylamide]
15 | 61 | 420 | CCOc1ccc(OCCCC[C@H](CC(=O)O)C(=O)N[C@@H](Cc2ccccc2)C(=O)NC)cc1 [Compound 15, N-((2R)-2-(1'-Carboxymethyl)-6-[(4-ethoxyphenyl)oxy]hexanoyl]-L-phenylananine N-Methylamide]
16 | 180 | 1000 | C=CCOc1ccc(OCCCC[C@H](CC(=O)O)C(=O)N[C@@H](Cc2ccccc2)C(=O)NC)cc1 [Compound 16, N-[(2R)-2-(1'-Carboxymethyl)-6-[(4-allyloxyphenyl)oxy]hexanoyl]-L-phenylananine N-Methylamide]
17 | 2.3 | 0.26 | COc1ccc(OCCC[C@H](CC(=O)NO)C(=O)N[C@H](C(=O)NCCS(N)(=O)=O)C(C)(C)C)cc1 [Compound 56, 2-[N-[(2R)-2-(2'-Hydroxyamino-2'-oxo-ethyl)-5-[(4-methoxyphenyl)oxy]pentanoyl]-L-tert-leucyl]amino-ethanesulfonamide]
18 | 49 | 39 | CCOc1ccc(OCC[C@H](CC(=O)O)C(=O)N[C@@H](Cc2ccccc2)C(=O)NC)cc1 [Compound 9, N-[(2R)-2-(1'-Carboxymethyl)-4-[(4-ethoxyphenyl)oxy]butyroyl]-L-phenylalanine N-Methylamide]
19 | 0.36 | 0.051 | COc1ccc(OCCC[C@H](CC(=O)NO)C(=O)N[C@@H](Cc2ccccc2)C(=O)NCCS(N)(=O)=O)cc1 [Compound 42, 2-[N-[(2R)-2-(2'-Hydroxyamino-2'-oxo-ethyl)-5-[(4-methoxyphenyl)oxy]pentanoyl]-L-phenylalanyl]amino-ethanesulfonamide]
20 | 6800 | 1500 | CNC(=O)[C@H](Cc1ccc(OC)cc1)NC(=O)[C@@H](CC(=O)NO)CC(C)(C)COC [Compound 59, (2S)-2-[(2R)-2-(2'-Hydroxyamino-2'-oxo-ethyl)-4,4-dimethyl-5-methoxy-pentanoyl]amino-3-(4-methoxy)phenylpropanoyl-methylamide]
21 | 37 | 23 | CNC(=O)[C@@H]1Cc2ccccc2CN1C(=O)[C@H](CCCOc1ccc(OC)cc1)CC(=O)NO [Compound 57, N-[(2R)-2-(2'-Hydroxyamino-2'-oxo-ethyl)-5-[(4-methoxyphenyl)oxy]pentanoyl]-L-tetrahydroisoquinoline N-Methylamide]
22 | > 10000 | 1500 | CNC(=O)[C@@H]1Cc2ccccc2CN1C(=O)[C@H](CCCOc1ccc(OC)cc1)CC(=O)O [Compound 27, N-[(2R)-2-(1'-Carboxymethyl)-5-[(4-methoxyphenyl)oxy]pentanoyl]-L-tetrahydroisoquinoline N-Methylamide]
23 | 18 | 13 | CCOc1ccc(OCCC[C@H](CC(=O)O)C(=O)N[C@@H](Cc2ccccc2)C(=O)NC)cc1 [Compound 13, N-[(2R)-2-(1'-Carboxymethyl)-5-[(4-ethoxyphenyl)oxy]pentanoyl]-L-phenylalanine N-Methylamide]
24 | 160 | 35 | CNC(=O)[C@H](Cc1ccccc1)NC(=O)[C@H](CCOc1ccc(OC)cc1)CC(=O)O [Compound 8, N-[(2R)-2-(1'-Carboxymethyl)-4-[(4-methoxyphenyl)oxy]butyroyl]-L-phenylalanine N-Methylamide]
25 | > 10000 | 3000 | CNC(=O)[C@H](Cc1ccccc1)NC(=O)[C@H](CCCCc1ccc2cccccc1-2)CC(=O)O [Compound 7, N-[(2R)-2-(1'-Carboxymethyl)-6-(azulene-1-yl)hexanoyl]-L-phenylalanine N-Methylamide]
26 | 3.1 | 0.13 | COc1ccc(OCCC[C@H](CC(=O)NO)C(=O)N[C@@H](Cc2ccccc2)C(=O)NC(C)(C)C)cc1 [Compound 41, N-[(2R)-2-(2'-Hydroxyamino-2'-oxo-ethyl)-5-[(4-methoxyphenyl)oxy]pentanoyl]-L-phenylalanine N-tert-Butylamide]
